Experimental data reported in US9346761B2, “Arginine methyltransferase inhibitors and uses thereof” (Epizyme, Inc., priority 2013, dated 2016).

Legend:
Full-length human PRMT3 = target: T1, Full-length human PRMT3 (Homo sapiens, UniProt O60678); test: PRMT3 biochemical assay (3H-SAM Flashplate, peptide substrate)
T1 construct: GST-tagged PRMT3; made in house; host or cells: E. coli BL21(DE3) Gold (pGEX-KG)
Description: (§1) General Materials. S-adenosylmethionine (SAM), S-adenosylhomocysteine (SAH), bicine, Tween20, dimethylsulfoxide (DMSO), bovine skin gelatin (BSG),), isopropyl-β-D-thiogalactopyranoside (IPTG), and Tris(2-carboxyethyl)phosphine hydrochloride solution (TCEP) were purchased from Sigma-Aldrich at the highest level of purity possible. ^3H-SAM was purchase from American Radiolabeled Chemicals with a specific activity of 80 Ci/mmol. 384-well streptavidin Flashplates were purchased from PerkinElmer.
Substrates. Peptide containing the classic RMT substrate motif was synthesized with an N-terminal linker-affinity tag motif and a C-terminal amide cap by 21st Century Biochemicals. The peptide was purified by high-performance liquid chromatography (HPLC) to greater than 95% purity and confirmed by liquid chromatography mass spectrometry (LC-MS). The sequence was Biot-Ahx-[…]-amide (SEQ ID NO.:11).
Molecular Biology: : Full-length human PRMT3 (NM_005788.3) isoform 1 transcript clone was amplified from an HEK 293 cDNA library and subcloned into pGEX-KG (GE Life Sciences). The resulting construct encodes an N-terminal GST tag and a thrombin cleavage sequence ([…] […] […] […]) (SEQ ID NO.:12) fused directly to Cys 2 of PRMT3.
Protein Expression. E. coli (BL21(DE3) Gold, Stratagene) made competent by the CaCl2 method were transformed with the PRMT3 construct and ampicillin selection. Protein over-expression was accomplished by growing the PRMT3 expressing E. coli clone and inducing expression with 0.3 mM IPTG at 16° C. The culture was grown for 12 hours, harvested by centrifugation, and stored at −80° C. for purification.
Protein Purification. […] GST-tagged PRMT3 eluted with 25-400 mM phosphate in buffer C. Protein was concentrated and buffer was exchanged to 20 mM Tris, 150 mM NaCl, 5% glycerol, 5 mM β-mercaptoethanol, pH7.8 by ultrafiltration. The purity of recovered protein was 70%.
(§2) General Procedure for PRMT3 Enzyme Assays on Peptide Substrates. The assays were all performed in a buffer consisting of 20 mM Bicine (pH=7.6), 1 mM TCEP, 0.005% BSG, and 0.002% Tween 20, prepared on the day of use. Compounds in 100% DMSO (1 ul) were spotted into a polypropylene 384-well V-bottom plates (Greiner) using a Platemate Plus outfitted with a 384-channel head (Thermo Scientific). DMSO (1 ul) was added to Columns 11, 12, 23, 24, rows A-H for the maximum signal control and 1 ul of SAH, a known product and inhibitor of PRMT3, was added to columns 11, 12, 23, 24, rows I-P for the minimum signal control. A cocktail (40 ul) containing the PRMT3 enzyme was added by Multidrop Combi (Thermo-Fisher). The compounds were allowed to incubate with PRMT3 for 30 min at room temperature, then a cocktail (10 ul) containing SAM and peptide was added to initiate the reaction (final volume=51 ul). The final concentrations of the components were as follows: PRMT3 was 0.5 nM, ^3H-SAM was 100 nM, non-radiolabeled SAM was 1.8 uM, peptide was 330 nM, SAH in the minimum signal control wells was 1 mM, and the DMSO concentration was 2%. The assays were stopped by the addition of potassium chloride (10 ul) to a final concentration of 100 mM. 50 ul of the reaction in the 384-well polypropylene plate was then transferred to a 384-well Flashplate and the biotinylated peptides were allowed to bind to the streptavidin surface for at least 1 hour before being washed once with 0.1% Tween20 in a Biotek ELx405 plate washer. The plates were then read in a PerkinElmer TopCount plate reader to measure the quantity of ^3H-labeled peptide bound to the Flashplate surface, measured as disintegrations per minute (dpm) or alternatively, referred to as counts per minute (cpm).
(§3) Where dpm=disintegrations per minute, cmpd=signal in assay well, and min and max are the respective minimum and maximum signal controls.
Where top and bottom are the normally allowed to float, but may be fixed at 100 or 0 respectively in a 3-parameter fit. […]

[1] = system: mono-methyl arginine in RKO cells; test: RKO methylation assay, In Cell Western for mono-methyl arginine and DNA content; type: cell-based; details: Homo sapiens; In Cell Western, RKO cells, 72 hours, percent activation of mono-methyl arginine signal; read-out: EC30
Description: RKO adherent cells were purchased from ATCC (American Type Culture Collection), Manassas, Va., USA. DMEM/Glutamax medium, penicillin-streptomycin, heat inactivated fetal bovine serum, 0.05% trypsin and D-PBS were purchased from Life Technologies, Grand Island, N.Y., USA. Odyssey blocking buffer, 800CW goat anti-rabbit IgG (H+L) antibody, and Licor Odyssey infrared scanner were purchased from Licor Biosciences, Lincoln, Nebr., USA. Mono-methyl arginine antibody was purchased from Cell Signaling Technology, Danvers, Mass., USA. Methanol was purchased from VWR, Franklin, Mass., USA. 10% Tween 20 was purchased from KPL, Inc., Gaithersburg, Md., USA. […] was purchased from Biostatus Limited, Leicestershire, UK.
RKO adherent cells were maintained in growth medium (DMEM/Glutamax medium supplemented with 10% v/v heat inactivated fetal bovine serum and 100 units/mL penicillin-streptomycin) and cultured at 37° C. under 5% CO2
Cell Treatment, in Cell Western (ICW) for Detection of Mono-Methyl Arginine and DNA Content. […] Compound (100 nL) from a 96-well source plate was added directly to 384 well cell plate. Plates were incubated at 37° C., 5% CO2 for 72 hours. After three days of incubation, plates were brought to room temperature outside of the incubator for ten minutes and blotted on paper towels to remove cell media. 50 μL of ice cold 100% methanol was added directly to each well and incubated for 30 min at room temperature. After 30 min, plates were transferred to a Biotek EL406 plate washer and washed 2 times with 100 μL per well of wash buffer (1×PBS). Next 60 μL per well of Odyssey blocking buffer (Odyssey Buffer with 0.1% Tween 20 (v/v)) were added to each plate and incubated 1 hour at room temperature. Blocking buffer was removed and 20 μL per well of primary antibody was added (mono-methyl arginine diluted 1:200 in Odyssey buffer with 0.1% Tween 20 (v/v)) and plates were incubated overnight (16 hours) at 4° C. Plates were washed 5 times with 100 μL per well of wash buffer. […] The plates were washed 5 times with 100 μL per well wash buffer then 2 times with 100 μL per well of water. Plates were allowed to dry at room temperature then imaged on the Licor Odyssey machine which measures integrated intensity at 700 nm and 800 nm wavelengths. Both 700 and 800 channels were scanned.
Calculations: First, the ratio for each well was determined by:
Each plate included fourteen control wells of DMSO only treatment (minimum activation) as well as fourteen control wells for maximum activation treated with 20 μM of a reference compound. The average of the ratio values for each control type was calculated and used to determine the percent activation for each test well in the plate. Reference compound was serially diluted three-fold in DMSO for a total of nine test concentrations, beginning at 20 μM. Percent activation was determined and EC30 curves were generated using triplicate wells per concentration of compound.

[2] = target: T2, Full-length human PRMT1 isoform 1 (Homo sapiens, UniProt Q99873); test: PRMT1 biochemical assay (3H-SAM Flashplate, peptide substrate)
T2 construct: GST-tagged PRMT1; made in house; host or cells: High Five insect cells (baculovirus, pFastBacI)
Description: as §1, with “(BSG),” for “(BSG),), isopropyl-β-D-thiogalactopyranoside (IPTG),”
Protein Expression. Recombinant baculovirus were generated according to Bac-to-Bac kit instructions (Life Technologies). […] Infections were carried out at 27° C. for 48 hours, harvested by centrifugation, and stored at −80° C. for purification.
Protein Purification. […] GST-tagged PRMT1 was eluted with 50 mM Tris, 2 mM glutathione, pH 7.8, dialysed in buffer A and concentrated to 1 mg/mL.
as §2, with “PRMT1” for “PRMT3”, “Compounds in 100% DMSO (1 ul) were spotted into a polypropylene 384-well V-bottom plates (Greiner) using a Platemate Plus outfitted with a 384-channel head (Thermo Scientific).” left out, “PRMT1,” for “PRMT3,”, “The final concentrations of the components were as follows: PRMT3 was 0.5 nM, ^3H-SAM was 100 nM, non-radiolabeled SAM was 1.8 uM, peptide was 330 nM, SAH in the minimum signal control wells was 1 mM, and the DMSO concentration was 2%.” left out, “non-radiolabeled SAM” for “potassium chloride”, “300 uM, which dilutes the ^3H-SAM to a level where its incorporation into the peptide substrate is no longer detectable.” for “100 mM.”
as §3
(§4) Where top and bottom are the normally allowed to float, but may be fixed at 100 or 0 respectively in a 3-parameter fit. The Hill Coefficient normally allowed to float but may also be fixed at 1 in a 3-parameter fit. Y is the % inhibition and X is the compound concentration.

Full-length human PRMT6 = target: T3, Full-length human PRMT6 (Homo sapiens, UniProt Q96LA8); test: PRMT6 biochemical assay (3H-SAM Flashplate, peptide substrate)
T3 construct: Flag-PRMT6-His was eluted with 200 ug/ml FLAG peptide in the same buffer; made in house; host or cells: HEK 293F cells (BacMam virus, pFastBacMam)
Description: as §1, with “(BSG), sodium butyrate” for “(BSG),), isopropyl-β-D-thiogalactopyranoside (IPTG),”
Substrates. Peptide representative of human histone H4 residues 36-50 was synthesized with an N-terminal linker-affinity tag motif and a C-terminal amide cap by 21st Century Biochemicals.
The amplified gene was subcloned into pFastBacMam (Viva Biotech).
Protein Expression. Recombinant baculovirus were generated according to Bac-to-Bac kit instructions (Life Technologies). […] Infections were carried out at 37° C. for 48 hours, harvested by centrifugation, and stored at −80° C. for purification.
Protein Purification. […] Column was washed with 20 mM imidazole in the same buffer and Flag-PRMT6-His was eluted with 150 mM imidazole. Pooled fractions were dialysed against buffer Ni-A and further purified by anti-flag M2 affinity chromatography. Flag-PRMT6-His was eluted with 200 ug/ml FLAG peptide in the same buffer. Pooled fractions were dialysed in 20 mM Tris, 150 mM NaCl, 10% glycerol and 5 mM β-mercaptoethanol, pH 7.8.
as §2, with “PRMT6” for “PRMT3”, “Compounds in 100% DMSO (1 ul) were spotted into a polypropylene 384-well V-bottom plates (Greiner) using a Platemate Plus outfitted with a 384-channel head (Thermo Scientific).” left out, “PRMT6,” for “PRMT3,”, “The final concentrations of the components were as follows: PRMT3 was 0.5 nM, ^3H-SAM was 100 nM, non-radiolabeled SAM was 1.8 uM, peptide was 330 nM, SAH in the minimum signal control wells was 1 mM, and the DMSO concentration was 2%.” left out, “non-radiolabeled SAM” for “potassium chloride”, “400 uM, which dilutes the ^3H-SAM to a level where its incorporation into the peptide substrate is no longer detectable.” for “100 mM.”
as §3, §4

T2 sequence (Q99873 with tags, fused parts or gaps): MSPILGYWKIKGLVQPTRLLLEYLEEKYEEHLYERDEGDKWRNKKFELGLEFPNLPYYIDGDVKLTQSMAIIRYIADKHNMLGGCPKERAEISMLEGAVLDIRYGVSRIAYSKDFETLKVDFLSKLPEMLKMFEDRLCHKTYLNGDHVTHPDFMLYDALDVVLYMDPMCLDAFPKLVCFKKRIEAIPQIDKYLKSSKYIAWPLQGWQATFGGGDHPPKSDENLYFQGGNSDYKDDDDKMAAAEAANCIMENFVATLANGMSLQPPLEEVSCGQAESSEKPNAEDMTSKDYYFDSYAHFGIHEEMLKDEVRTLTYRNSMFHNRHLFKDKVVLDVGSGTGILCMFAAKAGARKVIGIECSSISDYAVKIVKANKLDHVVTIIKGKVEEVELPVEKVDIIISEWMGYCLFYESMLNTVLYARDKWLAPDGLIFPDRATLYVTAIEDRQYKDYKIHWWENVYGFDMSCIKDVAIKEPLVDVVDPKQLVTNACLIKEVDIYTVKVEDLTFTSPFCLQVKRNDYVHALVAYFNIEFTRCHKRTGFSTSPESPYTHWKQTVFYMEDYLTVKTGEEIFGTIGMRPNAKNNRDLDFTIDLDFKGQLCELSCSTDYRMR
T3 sequence (Q96LA8 with tags, fused parts or gaps): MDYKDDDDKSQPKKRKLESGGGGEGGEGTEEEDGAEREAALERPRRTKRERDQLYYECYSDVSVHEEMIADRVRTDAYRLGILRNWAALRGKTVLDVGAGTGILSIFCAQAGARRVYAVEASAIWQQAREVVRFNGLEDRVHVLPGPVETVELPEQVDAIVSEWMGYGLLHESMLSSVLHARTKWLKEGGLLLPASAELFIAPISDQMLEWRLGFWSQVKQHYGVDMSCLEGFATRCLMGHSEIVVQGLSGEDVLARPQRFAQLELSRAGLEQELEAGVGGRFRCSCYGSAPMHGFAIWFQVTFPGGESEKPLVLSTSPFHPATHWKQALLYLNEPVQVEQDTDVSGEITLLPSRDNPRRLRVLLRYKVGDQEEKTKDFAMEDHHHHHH
T1 sequence (O60678 with tags, fused parts or gaps): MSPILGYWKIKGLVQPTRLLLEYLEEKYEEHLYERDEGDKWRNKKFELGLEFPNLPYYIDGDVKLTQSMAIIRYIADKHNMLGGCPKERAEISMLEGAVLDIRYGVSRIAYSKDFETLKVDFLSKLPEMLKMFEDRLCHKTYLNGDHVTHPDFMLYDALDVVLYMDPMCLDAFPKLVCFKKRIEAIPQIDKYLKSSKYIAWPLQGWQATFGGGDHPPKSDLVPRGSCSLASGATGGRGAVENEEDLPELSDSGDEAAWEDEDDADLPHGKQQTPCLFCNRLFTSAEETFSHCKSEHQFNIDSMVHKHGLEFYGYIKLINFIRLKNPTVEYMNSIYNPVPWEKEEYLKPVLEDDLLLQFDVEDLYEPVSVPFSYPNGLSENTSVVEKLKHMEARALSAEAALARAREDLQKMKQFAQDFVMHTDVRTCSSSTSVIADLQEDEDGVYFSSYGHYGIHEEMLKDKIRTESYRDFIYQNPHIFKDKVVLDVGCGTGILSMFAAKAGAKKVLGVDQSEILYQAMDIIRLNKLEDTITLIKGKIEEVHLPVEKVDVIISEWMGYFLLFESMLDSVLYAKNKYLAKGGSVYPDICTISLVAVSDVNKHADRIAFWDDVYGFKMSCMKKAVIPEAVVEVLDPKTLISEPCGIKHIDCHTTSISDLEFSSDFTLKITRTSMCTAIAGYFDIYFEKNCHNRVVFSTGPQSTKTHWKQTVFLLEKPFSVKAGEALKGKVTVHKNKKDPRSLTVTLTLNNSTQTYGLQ

Structure (SMILES) | IC50 (Full-length human PRMT3) [nM] | EC30 [1] [nM] | IC50 [2] [nM] | IC50 (Full-length human PRMT6) [nM]
CC(C)Cc1ccc(-c2n[nH]cc2CN(C)CCN)cc1 [Compound 165] | 1010 to 3000 | < 3000 | – | –
CNCCN(C)Cc1c[nH]nc1-c1cc(CC(C)C)cc(CC(C)C)c1 [Compound 281] | – | 3010 to 12000 | < 100 | 101 to 1000
CNCCN(C)Cc1c[nH]nc1-c1cc(Cl)c(OCC2CC2)c(Cl)c1 [Compound 282] | – | < 3000 | < 100 | < 100
